Assay results from patent US11352315B2, “Compositions and methods comprising a triaryl polyamine” (Curza Global, LLC, priority 2017, dated 2022).
≈ marks a conversion by molar mass, not a printed value.

What was measured:
MRSA [1] = assay: MIC analysis; format: cell-based; conditions: Staphylococcus aureus, 24 hours
Protocol: (§1) A clinical strain of MRSA, isolated from a patient who underwent arthroscopic knee surgery and characterized by ARUP Laboratories, Salt Lake City, Utah, was used for this study in addition to Pseudomonas aeruginosa ATCC 27853 and Alcanivorax borkumensis ATCC 700651. P. aeruginosa was resuspended in BHI broth, grown overnight at 37° C. and transferred to fresh BHI with 30% glycerol for storage at −80° C. The MRSA isolate was likewise stored in BHI with 30% glycerol at −80° C. […] Before performing MIC analysis and biofilm experiments, the frozen stocks of MRSA and P. aeruginosa were streaked onto Columbia blood agar plates and grown overnight at 37° C. A. borkumensis ATCC 700651 was resuspended from a lyophilized pellet into marine broth, grown overnight at 30° C. and passaged on marine agar plates prior to experimentation.
(§2) To determine the MIC of polyamine compounds, the protocol described herein was used.
(§3) In brief, a 0.5 McFarland of each bacterial isolate was made. A 0.5 McFarland is a measure of turbidity in a liquid sample that contains approximately 1×10^^8 CFU/mL. The 0.5 McFarland standard was diluted in cation adjusted Mueller Hinton Broth (CAMHB), and 50 μL of broth were added to a well of a 96-well plate. In addition, 50 μL of CAMHB that contained a desired concentration of antimicrobial were also added to the well for a final volume of 100 μL and a final concentration of approximately 5×10^4 CFU/well (which equated to approximately 5×10^5 CFU/mL). Each well contained a desired amount of polyamine compound in order to experimentally determine the MIC. Each 96-well plate was incubated at 37° C. for 24 hours. The contents of each well were plated on tryptic soy agar (TSA). TSA plates were incubated for 37° C. for 24 hours after which the number of CFU were counted and used to calculate the CFU/mL that remained after exposure to varying concentrations of compound. This procedure was repeated n=8 times for each concentration of antimicrobial.

P. aeruginosa [2] = assay: MIC analysis; format: cell-based; conditions: Pseudomonas aeruginosa, 24 hours
Protocol: as §1, §2, §3

MRSA [3] = assay: MBEC analysis, MBEC Inoculation Tray (column headed MBC); format: cell-based; conditions: Staphylococcus aureus, 24 hours
Description: (§4) To determine the MBEC of each polyamine compound, the MBEC Inoculation Tray by Innovotech, formerly known as the Calgary biofilm device, was used. Within this device, biofilms grow on the surface of polystyrene pegs, 96 of which are attached to a lid. These pegs are inserted into a flat bottom 96-well plate. In this instance, the MBEC of a molecule was defined as the concentration of compound (in μg/mL) required to reduce 10^5 or 10^6 CFU/peg (biofilm levels varied by isolate) to 10^2 CFU/peg in a 24-hour period.
(§5) Following the manufacturer's guidelines, biofilms were grown on the surface of each peg by first making a 0.5 McFarland of each isolate. The 0.5 McFarland was diluted 1:100 in CAMHB. Into each well of a flat bottom 96-well plate, 150 μL of broth were pipetted. The plate was shaken at 100 rpm for 24 hours (P. aeruginosa and A. baumannii) or 48 hours (MRSA). The pegs were then placed into a separate flat bottom 96-well plate for 10 seconds with 200 μL of phosphate buffered saline (PBS) in each well to remove nonadherent cells. The lid was then placed into a 96-well plate that contained varying concentrations of antimicrobial with 200 μL per well. The plate was incubated for 24 hours at 37° C. after which time 100 μL of broth were plated on TSA. TSA plates were incubated 24 hours at 37° C. and the number of CFU counted to calculate the CFU/peg. In this instance, the MBEC was defined as the concentration of antimicrobial required to reduce 10^5 or 10^6 CFU/peg to 10^2 CFU/peg in a 24 hour period.

P. aeruginosa [4] = assay: as above; format: cell-based; conditions: Pseudomonas aeruginosa, 24 hours
Description: as §4, §5

E. coli [5] = assay: MIC analysis; format: cell-based; conditions: Escherichia coli, 24 hours
Protocol: as §2, §3

E. coli [6] = assay: MBEC analysis, MBEC Inoculation Tray (column headed MBC); format: cell-based; conditions: Escherichia coli, 24 hours
MRSA [7] = assay: EBEC analysis, high number biofilms on PEEK membranes; format: cell-based, Staphylococcus aureus; conditions: 24 hours
Protocol: (§6) To determine the efficacy of polyamine compounds against high number biofilms, biofilms were grown on the surface of polyetheretherketone (PEEK) membranes using a membrane biofilm reactor. This reactor was similar to the CDC biofilm reactor, but rather than growing biofilms on coupon surfaces, the reactor was modified to hold PEEK membranes. In short, to grow biofilms within this system, 500 mL of brain heart infusion (BHI) broth were inoculated with 1 mL of a 0.5 McFarland. The reactor was placed on a hot plate set at 34° C. and the bacteria were grown under batch conditions for 24 hours.
(§7) A solution of 10% BHI was then flowed through the reactor at a rate of 6.94 mL/min for an additional 24 hours. PEEK membranes were then removed and placed into 2 mL of CAMHB that contained a desired concentration of polyamine compound or antibiotic. The EBEC was defined as the concentration of antimicrobial required to reduce a biofilm from approximately 10^9 CFU/PEEK membrane to approximately 10^2 CFU/PEEK membrane in a 24-hour period.

A. baumannii [8] = assay: MIC analysis; format: cell-based; conditions: Acinetobacter baumannii, 24 hours
Protocol: as §2, §3

A. baumannii [9] = assay: MBEC analysis, MBEC Inoculation Tray (column headed MBC); format: cell-based; conditions: Acinetobacter baumannii, 24 hours
Description: as §4, §5

A. baumannii [10] = assay: EBEC analysis, high number biofilms on PEEK membranes; format: cell-based, Acinetobacter baumannii; conditions: 24 hours
Protocol: as §6, §7

Row | MIC (MRSA [1]) [µg/mL] | MIC (P. aeruginosa [2]) [µg/mL] | MIC (A. baumannii [8]) [µg/mL] | Compound | MBC (MRSA [3]) [µg/mL] | MBC (P. aeruginosa [4]) [µg/mL] | MIC (E. coli [5]) [µg/mL] | MBC (E. coli [6]) [µg/mL] | EBEC (MRSA [7]) [µg/mL] | MBC (A. baumannii [9]) [µg/mL] | EBEC (A. baumannii [10]) [µg/mL]
1 | 16 (≈ 25.4 µM) | 32 (≈ 50.9 µM) |  | CC(C)CNCCCNCCCNCc1cccc(-c2ccccc2-c2cccc(CNCCCNCCCNCC(C)C)c2)c1 [CZ-1-152] | 16 (≈ 25.4 µM) | 32 (≈ 50.9 µM) |  |  |  |  | 
2 | 16 (≈ 19.3 µM) | > 64 |  | CC(C)CNCCCNCCCNCc1cccc(-c2ccc(-c3cccc(CNCCCNCCCNCC(C)C)c3)c(CNCCCNCCCNCC(C)C)c2)c1 [CZ-1-153, N^1,N^1′,N^1″-([1,1′:4′,1″-terphenyl]-2′,3,3″-triyltris(methylene))tris(N^3-(3-(isobutylamino)propyl)propane-1,3-diamine)] | 16 (≈ 19.3 µM) | > 64 |  |  |  |  | 
3 | 16 (≈ 23.4 µM) | 16 (≈ 23.4 µM) |  | CCCCCCNCCCNCCCNCc1cccc(-c2ccccc2-c2cccc(CNCCCNCCCNCCCCCC)c2)c1 [CZ-1-155, N^1,N^1′-([1,1′:2′,1″-terphenyl]-3,3″-diylbis(methylene))bis(N^3-(3-(hexylamino)propyl)propane-1,3-diamine)] | 16 (≈ 23.4 µM) | 16 (≈ 23.4 µM) |  |  |  |  | 
4 | 4 (≈ 6.36 µM) | 16 (≈ 25.4 µM) |  | CC(C)CNCCCNCCCNCc1ccc(-c2cccc(-c3ccc(CNCCCNCCCNCC(C)C)cc3)c2)cc1 [CZ-1-157, N^1,N^1′-([1,1′:3′,1″-terphenyl]-4,4″-diylbis(methylene))bis(N^3-(3-(isobutylamino)propyl)propane-1,3-diamine)] | 4 (≈ 6.36 µM) | 16 (≈ 25.4 µM) |  |  | >750 |  | 
5 | 1 (≈ 1.46 µM) | 16 (≈ 23.4 µM) |  | CCC(CC)CNCCCNCCCNCc1ccc(-c2cccc(-c3ccc(CNCCCNCCCNCC(CC)CC)cc3)c2)cc1 [CZ-1-164, N^1,N^1′-([1,1′:3′,1″-terphenyl]-4,4″-diylbis(methylene))bis(N^3-(3-((2-ethylbutyl)amino)propyl)propane-1,3-diamine)] | 1 (≈ 1.46 µM) | 16 (≈ 23.4 µM) |  |  |  |  | 
6 | 1 (≈ 1.52 µM) | 4 (≈ 6.09 µM) |  | CCC(C)CNCCCNCCCNCc1ccc(-c2cccc(-c3ccc(CNCCCNCCCNCC(C)CC)cc3)c2)cc1 (stereo not drawn) [CZ-1-166, N^1,N^1′-([1,1′:3′,1″-terphenyl]-4,4″-diylbis(methylene))bis(N^3-(3-((2-methylbutyl)amino)propyl)propane-1,3-diamine)] | 1 (≈ 1.52 µM) | 8 (≈ 12.2 µM) |  |  |  |  | 
7 | 8 (≈ 12.1 µM) | 64 (≈ 97.1 µM) |  | CC(C)CCNCCCNCCCNCc1ccc(-c2ccnc(-c3ccc(CNCCCNCCCNCCC(C)C)cc3)n2)cc1 [CZ-1-174, N^1,N^1′-((pyrimidine-2,4-diylbis(4,1-phenylene))bis(methylene))bis(N^3-(3-(isopentylamino)propyl)propane-1,3-diamine)] | 16 (≈ 24.3 µM) | > 64 |  |  |  |  | 
8 | 32 (≈ 50.7 µM) | 64 (≈ 101 µM) |  | CC(C)CNCCCNCCCNCc1ccc(-c2cc(-c3ccc(CNCCCNCCCNCC(C)C)cc3)ncn2)cc1 [CZ-1-176, N^1,N^1′-((pyrimidine-4,6-diylbis(4,1-phenylene))bis(methylene))bis(N^3-(3-(isobutylamino)propyl)propane-1,3-diamine)] | 32 (≈ 50.7 µM) | 64 (≈ 101 µM) |  |  |  |  | 
9 | 1 (≈ 1.46 µM) | 1 (≈ 1.46 µM) | 8 (≈ 11.7 µM) | CC(C)CNCCCNCCCNCc1ccc(-c2cc(-c3ccc(CNCCCNCCCNCC(C)C)cc3)cc(C(C)(C)C)c2)cc1 [CZ-1-177, N^1,N^1′-((5′-(tert-butyl)-[1,1′:3′,1″-terphenyl]-4,4″-diyl)bis(methylene))bis(N^3-(3-(isobutylamino)propyl)propane-1,3-diamine)] | 1 (≈ 1.46 µM) | > 4 |  |  | 250 | 16 (≈ 23.4 µM) | 500
10 | 1 (≈ 1.4 µM) | 1 (≈ 1.4 µM) | 2 (≈ 2.8 µM) | CCC(C)CNCCCNCCCNCc1ccc(-c2cc(-c3ccc(CNCCCNCCCNCC(C)CC)cc3)cc(C(C)(C)C)c2)cc1 (stereo not drawn) [CZ-1-178, N^1,N^1′-((5′-(tert-butyl)-[1,1′:3′,1″-terphenyl]-4,4″-diyl)bis(methylene))bis(N^3-(3-((2-methylbutyl)amino)propyl)propane-1,3-diamine)] | 1 (≈ 1.4 µM) | > 4 |  |  | <250 | 4 (≈ 5.61 µM) | 500
11 | 0.5 (≈ 0.675 µM) | 8 (≈ 10.8 µM) | 16 (≈ 21.6 µM) | CCC(CC)CNCCCNCCCNCc1cccc(-c2cc(-c3cccc(CNCCCNCCCNCC(CC)CC)c3)cc(C(C)(C)C)c2)c1 [CZ-1-183, N^1,N^1′-((5′-(tert-butyl)-[1,1′:3′,1″-terphenyl]-3,3″-diyl)bis(methylene))bis(N^3-(3-((2-ethylbutyl)amino)propyl)propane-1,3-diamine)] |  |  |  |  |  |  | 
12 | 0.5 (≈ 0.73 µM) | 16 (≈ 23.4 µM) | 64 (≈ 93.4 µM) | CC(C)CNCCCNCCCNCc1cccc(-c2cc(-c3cccc(CNCCCNCCCNCC(C)C)c3)cc(C(C)(C)C)c2)c1 [CZ-1-184, N^1,N^1′-((5′-(tert-butyl)-[1,1′:3′,1″-terphenyl]-3,3″-diyl)bis(methylene))bis(N^3-(3-(isobutylamino)propyl)propane-1,3-diamine)] |  |  |  |  |  |  | 

Row | Compound | MIC (MRSA [1]) [µg/mL] | MIC (P. aeruginosa [2]) [µg/mL] | MIC (A. baumannii [8]) [µg/mL] | MBC (MRSA [3]) [µg/mL] | MBC (P. aeruginosa [4]) [µg/mL] | MIC (E. coli [5]) [µg/mL] | MBC (E. coli [6]) [µg/mL] | EBEC (MRSA [7]) [µg/mL] | MBC (A. baumannii [9]) [µg/mL] | EBEC (A. baumannii [10]) [µg/mL]
13 | CC(C)CNCCCNCCCNCc1ccc(-c2ccccc2-c2ccc(CNCCCNCCCNCC(C)C)cc2)cc1 [CZ-1-154, N^1,N^1′-([1,1′:2′,1″-terphenyl]-4,4″-diylbis(methylene))bis(N^3-(3-(isobutylamino)propyl)propane-1,3-diamine)] | 4 (≈ 6.36 µM) | 32 (≈ 50.9 µM) |  | 4 (≈ 6.36 µM) | > 32 | 16 (≈ 25.4 µM) | 16 (≈ 25.4 µM) |  |  | 
14 | CCCCC(CC)CNCCCNCCCNCc1ccc(-c2cccc(-c3ccc(CNCCCNCCCNCC(CC)CCCC)cc3)c2)cc1 (stereo not drawn) [CZ-1-161, N^1,N^1′-([1,1′:3′,1″-terphenyl]-4,4″-diylbis(methylene))bis(N^3-(3-((2-ethylhexyl)amino)propyl)propane-1,3-diamine)] | 1 (≈ 1.35 µM) | 16 (≈ 21.6 µM) | 4 (≈ 5.4 µM) | 2 (≈ 2.7 µM) | 16 (≈ 21.6 µM) | 1 (≈ 1.35 µM) | 1 (≈ 1.35 µM) |  | 4 (≈ 5.4 µM) | 
